Experimental data from patent US12110305B2, “Prodrugs of phosphonamide nucleotide analogues and their pharmaceutical use” (priority 2020, dated 2024).
Read-outs that look alike come from different tables or passages of the source.

Tested on: HIV-1 (IIIB)
Test: Antiviral (HIV) assay in MT-4 cells
Assay type: cell-based
Conditions: HIV-1 IIIB in MT-4 cells, 5 days incubation, Cell Titer Glo, average of at least two independent experiments
Method: Example 104: Antiviral (HIV) Assay in MT-4 Cells
Compounds were tested in a high-throughput 384-well assay format for their ability to inhibit the replication of HIV-1 (IIIB) in MT-4 cells. Compounds were serially diluted (1:3) in DMSO on 384-well polypropylene plates and further diluted 200-fold into complete RPMI media (10% FBS, 1% P/S) using the Biotek Micro Flow and Labcyte ECHO acoustic dispenser. Each plate contained up to 8 test compounds, with negative (no drug) and positive (5 μM AZT) controls. MT-4 cells were pre-treated with 10 μL of either RPMI (mock-infected) or a fresh 1:250 dilution of HIV-1 IIIB concentrated virus stock. Infected and uninfected MT-4 cells were further diluted in complete RPMI media and added to each plate using a Micro Flow dispenser. After 5 days incubation in a humidified and temperature-controlled incubator (37° C.), Cell Titer Glo (Promega) was added to the assay plates and chemiluminescence read using an Envision plate-reader. EC50 values were defined as the compound concentration that causes a 50% decrease in luminescence signal and were calculated using a sigmoidal dose-response model to generate curve fits and are shown in Table 1.

[1] = Human immunodeficiency virus 1, MT4, 120 h

EC50 [1] | SMILES | EC50 (read-out: MT4 HIV EC50)
0.02 µM | CC(C)OC(=O)C(C)(C)NP(=O)(CO[C@H](C)Cn1cnc2c(N)ncnc21)NC(C)(C)C(=O)OC(C)C [Example 43, Diisopropyl 2,2′-(((((1-(6-amino-9H-purin-9-yl)propan-2-yl)oxy)methyl)phosphoryl)bis(azanediyl))(R)-bis(2-methylpropanoate)] | 
0.003 µM | C[C@H](Cn1cnc2c(N)ncnc21)OCP(=O)(NC(C)(C)C(=O)OC1CCCC1)NC(C)(C)C(=O)OC1CCCC1 [Example 34, Dicyclopentyl 2,2′-(((((1-(6-amino-9H-purin-9-yl)propan-2-yl)oxy)methyl)phosphoryl)bis(azanediyl))(R)-bis(2-methylpropanoate)] | 
0.037 µM | CCCCCCOC(=O)[C@](C)(CC)NP(=O)(CO[C@H](C)Cn1cnc2c(N)ncnc21)N[C@@](C)(CC)C(=O)OCCCCCC [Example 10, Dihexyl 2,2′-((((((R)-1-(6-amino-9H-purin-9-yl)propan-2-yl)oxy)methyl)phosphoryl)bis(azanediyl))(2S,2'S)-bis(2-methylbutanoate)] | 
0.017 µM | CCCCCCOC(=O)[C@](C)(Cc1ccccc1)NP(=O)(CO[C@H](C)Cn1cnc2c(N)ncnc21)N[C@@](C)(Cc1ccccc1)C(=O)OCCCCCC [Example 11, Dihexyl 2,2′-((((((R)-1-(6-amino-9H-purin-9-yl)propan-2-yl)oxy)methyl)phosphoryl)bis(azanediyl))(2S,2'S)-bis(2-methyl-3-phenylpropanoate)] | 
0.005 µM | C[C@H](Cn1cnc2c(N)ncnc21)OCP(=O)(NC(C)(C)C(=O)OCC1CCCCC1)NC(C)(C)C(=O)OCC1CCCCC1 [Example 46, Bis(cyclohexylmethyl) 2,2′-(((((1-(6-amino-9H-purin-9-yl)propan-2-yl)oxy)methyl)phosphoryl)bis(azanediyl))(R)-bis(2-methylpropanoate)] | 
0.005 µM | C[C@H](Cn1cnc2c(N)ncnc21)OCP(=O)(NC(C)(C)C(=O)O[C@H]1C[C@@H](c2ccccc2)C1)NC(C)(C)C(=O)O[C@H]1C[C@@H](c2ccccc2)C1 [Example 85, Bis((1s,3S)-3-phenylcyclobutyl) 2,2′-((((((R)-1-(6-amino-9H-purin-9-yl)propan-2-yl)oxy)methyl)phosphoryl)bis(azanediyl))bis(2-methylpropanoate)] | 
> 0.5 µM | CCCCCCOC(=O)C(C)(C)NP(=O)(CO[C@H](C)Cn1cnc2c(N)ncnc21)NC(C)(C)C(=O)OCC12CCC(CC1)C2 (stereo partly drawn) [Example 80, Bicyclo[2.2.1]heptan-1-ylmethyl 2-((((((R)-1-(6-amino-9H-purin-9-yl)propan-2-yl)oxy)methyl)((1-(hexyloxy)-2-methyl-1-oxopropan-2-yl)amino)phosphoryl)amino)-2-methylpropanoate] | 
0.006 µM | C[C@H](Cn1cnc2c(N)ncnc21)OCP(=O)(NC(C)(C)C(=O)OCC1CCC2(CCC2)CC1)NC(C)(C)C(=O)OCC1CCC2(CCC2)CC1 (stereo partly drawn) [Example 53, Bis(spiro[3.5]nonan-7-ylmethyl) 2,2′-(((((1-(6-amino-9H-purin-9-yl)propan-2-yl)oxy)methyl)phosphoryl)bis(azanediyl))(R)-bis(2-methylpropanoate)] | 
0.007 µM | C[C@H](Cn1cnc2c(N)ncnc21)OCP(=O)(NC(C)(C)C(=O)O[C@H]1CC[C@H](C(F)(F)F)CC1)NC(C)(C)C(=O)O[C@H]1CC[C@H](C(F)(F)F)CC1 [Example 21, Bis(trans-4-(trifluoromethyl)cyclohexyl) 2,2′-((((((R)-1-(6-amino-9H-purin-9-yl)propan-2-yl)oxy)methyl)phosphoryl)bis(azanediyl))bis(2-methylpropanoate)] | 
0.006 µM | C[C@H](Cn1cnc2c(N)ncnc21)OCP(=O)(NC(C)(C)C(=O)OCC12CCC(CC1)C2)NC(C)(C)C(=O)OCC12CCC(CC1)C2 [Example 87, Bis(bicyclo[2.2.1]heptan-1-ylmethyl) 2,2′-(((((1-(6-amino-9H-purin-9-yl)propan-2-yl)oxy)methyl)phosphoryl)bis(azanediyl))(R)-bis(2-methylpropanoate)] | 
0.003 µM | C[C@H](Cn1cnc2c(N)ncnc21)OCP(=O)(NC(C)(C)C(=O)OCC1CCCC1)NC(C)(C)C(=O)OCC1CCCC1 [Example 45, Bis(cyclopentylmethyl) 2,2′-(((((1-(6-amino-9H-purin-9-yl)propan-2-yl)oxy)methyl)phosphoryl)bis(azanediyl))(R)-bis(2-methylpropanoate)] | 
0.017 µM | C[C@H](Cn1cnc2c(N)ncnc21)OCP(=O)(N[C@@](C)(Cc1ccccc1)C(=O)OCC1CCCCC1)N[C@@](C)(Cc1ccccc1)C(=O)OCC1CCCCC1 [Example 15, Bis(cyclohexylmethyl) 2,2′-((((((R)-1-(6-amino-9H-purin-9-yl)propan-2-yl)oxy)methyl)phosphoryl)bis(azanediyl))(2S,2'S)-bis(2-methyl-3-phenylpropanoate)] | 
0.012 µM | CCCCCCOC(=O)C(C)(C)NP(=O)(CO[C@H](C)Cn1cnc2c(NC(=O)OC(C)(C)CC(=O)OCc3oc(=O)oc3C)ncnc21)NC(C)(C)C(=O)OCCCCCC [Example 101, Dihexyl 2,2′-(((((1-(6-((((2-methyl-4-((5-methyl-2-oxo-1,3-dioxol-4-yl)methoxy)-4-oxobutan-2-yl)oxy)carbonyl)amino)-9H-purin-9-yl)propan-2-yl)oxy)methyl)phosphoryl)bis(azanediyl))(R)-bis(2-methylpropanoate)] | 
 | CCC(CC)COC(=O)C(C)(C)N[P@](=O)(CO[C@H](C)Cn1cnc2c(N)ncnc21)NC1(C(=O)OCC(CC)CC)CC1 [Example 71, 2-Ethylbutyl 1-(((R)-((((R)-1-(6-amino-9H-purin-9-yl)propan-2-yl)oxy)methyl)((1-(2-ethylbutoxy)-2-methyl-1-oxopropan-2-l)amino)phosphoryl)amino)cyclopropane-1-carboxylate] | 0.233 µM
> 0.5 µM | CCCCCCOC(=O)C(C)(C)NP(=O)(CO[C@H](C)Cn1cnc2c(N)ncnc21)NC(C)(C)C(=O)OC(C)C1CC1 (stereo partly drawn) [Example 81, 1-Cyclopropylethyl 2-((((((R)-1-(6-amino-9H-purin-9-yl)propan-2-yl)oxy)methyl)((1-(hexyloxy)-2-methyl-1-oxopropan-2-yl)amino)phosphoryl)amino)-2-methylpropanoate] | 
0.007 µM | C[C@H](Cn1cnc2c(N)ncnc21)OCP(=O)(NC(C)(C)C(=O)OC1CCC1)NC(C)(C)C(=O)OC1CCC1 [Example 47, Dicyclobutyl 2,2′-(((((1-(6-amino-9H-purin-9-yl)propan-2-yl)oxy)methyl)phosphoryl)bis(azanediyl))(R)-bis(2-methylpropanoate)] | 
0.012 µM | CCCCCCOC(=O)C(C)(C)NP(=O)(CO[C@H](C)Cn1cnc2c(N)ncnc21)NC1(C(=O)OCCCCCC)CC1 (stereo partly drawn) [Example 20, Hexyl 1-((((((R)-1-(6-amino-9H-purin-9-yl)propan-2-yl)oxy)methyl)((1-(hexyloxy)-2-methyl-1-oxopropan-2-yl)amino)phosphoryl)amino)cyclopropane-1-carboxylate] | 
0.006 µM | C[C@H](Cn1cnc2c(N)ncnc21)OCP(=O)(NC(C)(C)C(=O)OCC12CCC(CC1)CC2)NC(C)(C)C(=O)OCC12CCC(CC1)CC2 [Example 48, Bis(bicyclo[2.2.2]octan-1-ylmethyl) 2,2′-(((((1-(6-amino-9H-purin-9-yl)propan-2-yl)oxy)methyl)phosphoryl)bis(azanediyl))(R)-bis(2-methylpropanoate)] | 
0.014 µM | CCCOC(=O)C(C)(C)NP(=O)(CO[C@H](C)Cn1cnc2c(N)ncnc21)NC(C)(C)C(=O)OCCC [Example 36, Dipropyl 2,2′-(((((1-(6-amino-9H-purin-9-yl)propan-2-yl)oxy)methyl)phosphoryl)bis(azanediyl))(R)-bis(2-methylpropanoate)] | 
0.005 µM | C[C@H](Cn1cnc2c(N)ncnc21)OCP(=O)(NC(C)(C)C(=O)OC[C@H]1CC[C@H](C)CC1)NC(C)(C)C(=O)OC[C@H]1CC[C@H](C)CC1 [Example 91, Bis((trans-4-methylcyclohexyl)methyl) 2,2′-((((((R)-1-(6-amino-9H-purin-9-yl)propan-2-yl)oxy)methyl)phosphoryl)bis(azanediyl))bis(2-methylpropanoate)] | 
> 0.5 µM | CCCCCCOC(=O)C(C)(C)NP(=O)(CO[C@H](C)Cn1cnc2c(NC(=O)OCCCCC)ncnc21)NC(C)(C)C(=O)OCCCCCC [Example 32, Dihexyl 2,2′-(((((1-(6-(((pentyloxy)carbonyl)amino)-9H-purin-9-yl)propan-2-yl)oxy)methyl)phosphoryl)bis(azanediyl))(R)-bis(2-methylpropanoate)] | 
0.016 µM | CCCCCCOC(=O)C(C)(C)NP(=O)(CO[C@H](C)Cn1cnc2c(NC(=O)CCC)ncnc21)NC(C)(C)C(=O)OCCCCCC [Example 29, Dihexyl 2,2′-(((((1-(6-butyramido-9H-purin-9-yl)propan-2-yl)oxy)methyl)phosphoryl)bis(azanediyl))(R)-bis(2-methylpropanoate)] | 

SMILES | EC50 [1] | EC50 (read-out: MT4 HIV EC50)
CCC(CC)COC(=O)C(C)(C)N[P@@](=O)(CO[C@H](C)Cn1cnc2c(N)ncnc21)NC1(C(=O)OCC(CC)CC)CC1 [Example 72, 2-Ethylbutyl 1-(((S)-((((R)-1-(6-amino-9H-purin-9-yl)propan-2-yl)oxy)methyl)((1-(2-ethylbutoxy)-2-methyl-1-oxopropan-2-yl)amino)phosphoryl)amino)cyclopropane-1-carboxylate] | 0.016 µM | 
